Reference: patent US10183019B2, “Treatment of cancer with dihydropyrazino-pyrazines” (Signal Pharmaceuticals, LLC, priority 2013, dated 2019)

Tests used:
Assay type in all cases: cell-based
[1] = test system: patient-derived GBM cell line 157; assay: Gliomasphere Cell Number Assay; settings: cell line 157, Primary, MGMT status −; 50% cell numbers vs DMSO control, Day 2 to Day 9; read-out: IC50 Cell Survival
Procedure: (§1) Gliomasphere Cell Number Assay. Primary patient-derived GBM tumor samples were dissociated and plated under culture conditions that produce gliomaspheres (i.e. DMEM/F12 medium supplemented with B27, 20 ng/mL bFGF, 50 ng/mL EGF, penicillin/streptomycin, L-glutamine and 5 ug/mL heparin). Cells were plated at a density of 5000 cells/well and allowed to acclimate overnight at 37° C. The Dihydropyrazino-Pyrazine Compounds were added to the cultures on Day 2 and cells were kept in culture until Day 9. On Day 9, the cells were fixed with PFA/methanol and the next day assessed for cell number, using for example, SYTO-9 fluorescent DNA dye. Plates were read 48 h later with a laser scanning imager.

[2] = test system: patient-derived GBM cell line 206; assay: Gliomasphere Cell Number Assay; settings: cell line 206, Recurrent, MGMT Unkn/Highly Expressed; 50% cell numbers vs DMSO control, Day 2 to Day 9; read-out: IC50 Cell Survival
Procedure: as §1

[3] = test system: patient-derived GBM cell line 248; assay: Gliomasphere Cell Number Assay; settings: cell line 248, Recurrent, MGMT status Slightly elevated; 50% cell numbers vs DMSO control, Day 2 to Day 9; read-out: IC50 Cell Survival
Procedure: as §1

[4] = test system: patient-derived GBM cell line 250; assay: Gliomasphere Cell Number Assay; settings: cell line 250, Recurrent, MGMT Unkn/Highly Expressed; 50% cell numbers vs DMSO control, Day 2 to Day 9; read-out: IC50 Cell Survival
Procedure: as §1

[5] = test system: patient-derived GBM cell line 301; assay: Gliomasphere Cell Number Assay; settings: cell line 301, Primary, MGMT status −; 50% cell numbers vs DMSO control, Day 2 to Day 9; read-out: IC50 Cell Survival
Procedure: as §1

[6] = test system: patient-derived GBM cell line 371; assay: Gliomasphere Cell Number Assay; settings: cell line 371, Recurrent, MGMT status −; 50% cell numbers vs DMSO control, Day 2 to Day 9; read-out: IC50 Cell Survival
Procedure: as §1

[7] = test system: patient-derived GBM cell line 378; assay: Gliomasphere Cell Number Assay; settings: cell line 378, Recurrent, MGMT status −; 50% cell numbers vs DMSO control, Day 2 to Day 9; read-out: IC50 Cell Survival
Procedure: as §1

[8] = test system: patient-derived GBM cell line 390; assay: Gliomasphere Cell Number Assay; settings: cell line 390, Primary, MGMT status −; 50% cell numbers vs DMSO control, Day 2 to Day 9; read-out: IC50 Cell Survival
Procedure: as §1

[9] = test system: patient-derived GBM cell line 206; assay: Gliomasphere Formation Assay; settings: cell line 206, Recurrent, MGMT Unkn/Highly Expressed; 50% sphere formation vs DMSO control
Procedure: (§2) Primary patient-derived GBM tumor samples were dissociated and plated under culture conditions (i.e. DMEM/F12 medium supplemented with B27, 20 ng/mL bFGF, 50 ng/mL EGF, penicillin/streptomycin, L-glutamine and 5 ug/mL heparin) that produce gliomaspheres. Cells were plated at a density of 50 cells per well and allowed to acclimate overnight at 37° C. The Dihydropyrazino-Pyrazine Compounds were added to the cultures on Day 2 and replenished every 7 days. EGF and FGF were also replenished every 7 days. The cells were fixed with PFA/methanol when the smallest sphere was greater than 60 microns, typically 3-5 weeks. The cells were fixed with PFA/methanol and the next day assessed for cell number, using for example, SYTO-9 fluorescent DNA dye. Plates were read 48 h later with a laser scanning imager.

[10] = test system: patient-derived GBM cell line 217; assay: Gliomasphere Formation Assay; settings: cell line 217, Primary; 50% sphere formation vs DMSO control
Procedure: as §2

[11] = test system: patient-derived GBM cell line 245; assay: Gliomasphere Formation Assay; settings: cell line 245, Recurrent; 50% sphere formation vs DMSO control
Procedure: as §2

[12] = test system: patient-derived GBM cell line 250; assay: Gliomasphere Formation Assay; settings: cell line 250, Recurrent, MGMT Unkn/Highly Expressed; 50% sphere formation vs DMSO control
Procedure: as §2

[13] = test system: patient-derived GBM cell line 282; assay: Gliomasphere Formation Assay; settings: cell line 282, Primary, MGMT ND; 50% sphere formation vs DMSO control
Procedure: as §2

[14] = test system: patient-derived GBM cell line 296; assay: Gliomasphere Formation Assay; settings: cell line 296, Recurrent, MGMT status −; 50% sphere formation vs DMSO control
Procedure: as §2

[15] = test system: patient-derived GBM cell line 309; assay: Gliomasphere Formation Assay; settings: cell line 309, Recurrent, MGMT ND; 50% sphere formation vs DMSO control
Procedure: as §2

[16] = test system: patient-derived GBM cell line 350; assay: Gliomasphere Formation Assay; settings: cell line 350, Recurrent; 50% sphere formation vs DMSO control
Procedure: as §2

[17] = test system: patient-derived GBM cell line 206; assay: Sphere-Reformation Assay; settings: 7 day pre-treatment, various doses
Procedure: (§3) Tumorsphere lines 206, 217, 254 and 282 in FIGS. 1A, 1B, 1C and 1D, respectively, were dissociated and plated as single cells at a density of 50,000 cells/ml of tumorsphere media in a total of 10 mL per T-25 cell culture flask and 5 flasks per cell line. […] 60 wells were plated from each flask of cells. Tumorspheres were allowed to grow until they achieved at least 60 microns in diameter before they were counted. The percentage of tumorsphere formation was calculated as the number of tumorspheres counted divided by the number of cells seeded times the plating efficiency of the control.
(§4) Patient-derived GBM cell lines cultured under tumorsphere culture conditions maintain a highly heterogenous population of cells, including both sphere-initiating cells, as well as more committed progenitor cells with limited proliferative capabilities. To determine if Compound 1 specifically targets the sphere-initiating cell population, we performed a sphere re-formation assay after Compound 1 pre-treatment. […] Compound 1 may target both the sphere-initiating cells as well as the more committed progenitor cells thus the percentage of sphere-initiating cells in the culture remains constant after Compound 1 treatment.

[18] = test system: patient-derived GBM cell line 217; assay: Sphere-Reformation Assay; settings: 7 day pre-treatment, various doses
Procedure: as §3, §4

[19] = test system: patient-derived GBM cell line 254; assay: Sphere-Reformation Assay
Procedure: as §3, §4

[20] = test system: patient-derived GBM cell line 282; assay: Sphere-Reformation Assay; settings: 7 day pre-treatment, various doses (100 nM and 500 nM not tested)
Procedure: as §3, §4

CCN1C(=O)CNc2ncc(-c3ccc(-c4nc[nH]n4)nc3C)nc21 [Compound 1, 1-ethyl-7-(2-methyl-6-(1H-1,2,4-triazol-3-yl)pyridin-3-yl)-3,4-dihydropyrazino[2,3-b]pyrazin-2(1H)-one]
IC50 [1]: 0.0468 µM
IC50 [2]: 0.163 µM
IC50 [3]: 0.441 µM
IC50 [4]: 0.0706 µM
IC50 [5]: 0.313 µM
IC50 [6]: 0.368 µM
IC50 [7]: 0.0813 µM
IC50 [8]: 0.0659 µM
IC50 [9]: 0.142 µM
IC50 [10]: 0.0421 µM
IC50 [11]: 0.0226 µM
IC50 [12]: 0.0396 µM
IC50 [13]: 0.0258 µM
IC50 [14]: 0.544 µM
IC50 [15]: 0.159 µM
IC50 [16]: 0.0393 µM
number of spheres formed by cells that survived pre-treatment vs control untreated cells [17]: not significantly different
number of spheres formed by cells that survived pre-treatment vs control untreated cells [18]: not significantly different
tumorsphere re-formation after pre-treatment ([19]; 500 nM, 7 days): No tumorspheres re-formed
number of spheres formed by cells that survived pre-treatment vs control untreated cells ([19]; 7 day pre-treatment, various doses): not significantly different
number of spheres formed by cells that survived pre-treatment vs control untreated cells [20]: not significantly different
